Data set [1] relates to patients. The following applies: cited from earlier work.
Data set [2] can be described thus: Plasma pharmacokinetics of veliparib and topotecan. It is filed as in vivo, human. The settings on record: for half-life / AUC(0-t): human, plasma; for AUC(0-t): oral.
In data set [3] the test system is poly(ADP-ribose) (PAR) levels in peripheral blood mononuclear cells. Description: PAR levels in PBMCs by sandwich ELISA. The class given is in vivo, human. The settings on record: topotecan alone, Day 30 (Cycle 2 Day 2); of 20 quantifiable pairs. On the technique in general: An ELISA detects its analyte on a solid surface through an enzyme-linked reagent.
Data set [4] has as its system recurrent, platinum-resistant ovarian cancer. The following applies: cited from earlier work.
The mark [5] stands for this setting: daily 1-hour infusion for 5 consecutive days, recurrent platinum-resistant ovarian cancer.

Molecules are shown by their SMILES.

For the compound `O=C(c1cc(Cc2n[nH]c(=O)c3ccccc23)ccc1F)N1CCN(C(=O)C2CC2)CC1` [olaparib], the “RP2D of the combination, olaparib dose” value in data set [1] (per dose, twice daily days 1–5, with irinotecan every two weeks) is 50 mg.

As a reminder, the half-life is how long it takes for the measured level to halve. Consider `CC[C@@]1(O)C(=O)OCc2c1cc1n(c2=O)Cc2cc3c(CN(C)C)c(O)ccc3nc2-1` [topotecan], for which the “single-agent MTD” value in data set [1] (weekly topotecan (days 2, 9 and 16)) was 4 mg/m^2. This compound also gave a half-life in data set [2] (iv) of 2.7 ± 0.6 h. The “plasma clearance, mean (± SD)” value in data set [2] (topotecan administered alone on Cycle 2, iv) is given as 10.1 ± 3.8 L/hr/m^2. For the same compound, in data set [3], the “sample pairs with decreased PAR levels” value came out at 7, the “sample pairs with increased PAR levels” value is 11 and the “sample pairs with unchanged PAR levels” value came to 2. For the same compound, in data set [4] (setting [5]), the median overall survival is given as 57 weeks and the overall response rate is given as 17%. Further, the women with myelosuppression entry in data set [4] (daily x 5 topotecan) is “up to 75%”. Moreover, in data set [4] (phase II, days 1, 8, 15 of a 28-day cycle, platinum refractory/resistant ovarian cancer), the response rate is 18%. Besides, in data set [4] (phase II, days 1, 8, 15 of a 28-day cycle, myelosuppression mild), the “grade 4 toxicities” value was “no grade 4 toxicities observed”.

Broadly, the AUC(0-t) is the area under the concentration-time curve up to a stated or last time point. Low values mean less exposure, high ones more exposure. As for `C[C@]1(c2nc3c(C(N)=O)cccc3[nH]2)CCCN1` [veliparib], the “single agent MTD” value in data set [1] (veliparib bid) is given as 400 mg. Also, the AUC(0-t) was determined as 351 ± 69 ng·h/mL in data set [2] (10 mg) and 15000 ± 3090 ng·h/mL in data set [2] (300 mg). The same compound had a half-life in data set [2] (po) of 6.1 ± 2.8 h.

Values taken from publication PMC7580251 (Clinical cancer research : an official journal of the …, 2017).
